In patent US20220064170A1, “BICYCLIC HETEROCYCLIC DERIVATIVES AND THEIR USE AS PHARMACEUTICALS” (Prelude Therapeutics, Incorporated, priority 2018, published 2022):

molecular target: T1, MCL-1 (Homo sapiens, UniProt Q07820); experiment: Cell Free Mcl-1:Bim affinity assay (Mcl-1 Bim), fluorescence polarization competition; type: binding; details: 15 nM MCL-1, 5 nM FITC-Bim peptide tracer, 1 hour at room temperature; Ki calculated from IC50 by Nikolovska-Coleska's equation; read-out: BIM_Ki
T1 construct: purchased BPS Bioscience
T1 sequence (Q07820 whole entry): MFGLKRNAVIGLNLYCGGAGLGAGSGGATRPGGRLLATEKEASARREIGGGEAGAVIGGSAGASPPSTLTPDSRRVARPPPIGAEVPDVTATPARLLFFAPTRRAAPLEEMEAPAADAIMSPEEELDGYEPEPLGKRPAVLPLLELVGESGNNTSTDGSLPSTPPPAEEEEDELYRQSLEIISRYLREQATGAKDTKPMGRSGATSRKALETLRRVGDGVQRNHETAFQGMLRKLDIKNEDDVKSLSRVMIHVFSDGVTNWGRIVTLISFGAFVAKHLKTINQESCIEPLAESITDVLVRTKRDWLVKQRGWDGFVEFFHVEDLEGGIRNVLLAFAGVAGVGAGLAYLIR
Experimental: The binding affinity of each compounds was measured via fluorescence polarization competition assay, in which the compound competes the same binding site with the ligand, and thus lead to dose-dependent anisotropy reduction. The tracer ligand utilized was a fluorescein isothiocyanate labelled peptide (FITC-[…]) derived from Bim (GenScript).
The assay was carried out in black half-area 96-well NBS plate (Corning), containing 15 nM of MCL-1 (BPS Bioscience), 5 nM of FITC-Bim and 3-fold series diluted test compounds in a total volume of 50 uL of assay buffer (20 mM HEPES, 50 mM NaCl, 0.002% Tween 20 1 mM TCEP and 1% DMSO). The reaction plate was incubated for 1 hour at room temperature. The change of anisotropy is measured by Envision multimode plate reader (PerkinElmer) at emission wavelength 535 nm. Fluorescence polarization was calculated in mP unit and the percentage inhibition was calc. by % inhibition=100×(mPDMSO−mP)/(mPDMSO−mPPC), in which mPDMSO is the DMSO control, and mPPC is the positive control. IC50 values were determined from a 10-point dose response curve by fitting the percent inhibition against compound concentration using the GraphPad Prism software. The inhibition constant Ki was subsequently calculated according Nikolovska-Coleska's equation (Anal. Biochem., 2004, 332, 261),
Where [I]50 is the concentration of the free inhibitor at 50% inhibition, [L]50 is the concentration of the free labeled ligand at 50% inhibition, [P]0 is the concentration of the free protein at 0% inhibition, and Kd is the dissociation constant of the protein-ligand complex.

| Molecule | Ki [nM] |
| --- | --- |
| Cc1c(-c2c(-c3ccc(F)cc3)cn3ncnc(N[C@H](Cc4ccccc4OCC4CC4)C(=O)O)c23)ccc(OCCN2CCN(C)CC2)c1Cl (single isomer, unassigned) [Example 5] | > 12000 |
| COc1ccccc1-c1nccc(COc2ccccc2C[C@H](Nc2ncnn3cc(-c4ccc(F)cc4)c(-c4ccc(OCCN5CCN(C)CC5)c(Cl)c4C)c23)C(=O)O)n1 (single isomer, unassigned) [Example 12] | 990 |
| COc1ccccc1-c1nccc(COc2ccccc2C[C@H](Nc2ncnn3cc(-c4ccc(F)cc4)c(-c4ccc(OCCN5CCN(C)CC5)c(Cl)c4C)c23)C(=O)O)n1 (racemic) [Example 11] | 382 |
| Cc1c(-c2c(-c3ccc(F)cc3)cn3ncnc(N[C@@H](Cc4ccccc4OCC4CC4)C(=O)O)c23)ccc(OCCN2CCN(C)CC2)c1Cl (atropisomer, axis not shown; (Sa)) [Example 8, (2S)-2-{[(5Sa)-5-[3-Chloro-2-methyl-4-[2-(4-methylpiperazin-1-yl)ethoxy]phenyl]-6-(4-fluorophenyl)pyrrolo[2,1-f][1,2,4]triazin-4-yl]amino}-3-[2-(cyclopropylmethoxy)phenyl]-propanoic acid] | > 12000 |
| COc1ccccc1-c1nccc(COc2ccccc2C[C@@H](Nc2ncnn3cc(-c4ccc(F)cc4)c(-c4ccc(OCCN5CCN(C)CC5)c(Cl)c4C)c23)C(=O)O)n1 (atropisomer, axis not shown; (Ra)) [Example 13, (2R)-2-{[(5Ra)-5-{3-Chloro-2-methyl-4-[2-(4-methylpiperazin-1-yl)ethoxy]phenyl}-6-(4-fluorophenyl)pyrrolo[2,1-f][1,2,4]triazin-4-yl]amino}-3-(2-{[2-(2-methoxyphenyl)pyrimidin-4-yl]methoxy}phenyl)propanoic acid] | 0.7 |
| (2S)-2-{[(5Ra)-5-[3-Chloro-2-methyl-4-[2-(4-methylpiperazin-1-yl)ethoxy]phenyl]-6-(4-fluorophenyl)pyrrolo[2,1-f][1,2,4]triazin-4-yl]amino}-3-[2-(cyclopropylmethoxy)phenyl]propanoic acid [Example 6] | > 12000 |
| Cc1c(-c2c(-c3ccc(F)cc3)cn3ncnc(O[C@@H](Cc4ccccc4OCC4CC4)C(=O)O)c23)ccc(OCCN2CCN(C)CC2)c1Cl (atropisomer, axis not shown) [Example 2, (2S)-2-[(5R^a)-5-[3-Chloro-2-methyl-4-[2-(4-methylpiperazin-1-yl)ethoxyl]phenyl]-6-(4-fluoro-phenyl)pyrrolo[2,1-f][1,2,4]triazin-4-yl]oxy-3-[2-(cyclopropylmethoxy)phenyl]propanoic acid] | > 12000 |
| Cc1c(-c2c(-c3ccc(F)cc3)cn3ncnc(O[C@@H](Cc4ccccc4OCC4CC4)C(=O)O)c23)ccc(OCCN2CCN(C)CC2)c1Cl (atropisomer, axis not shown; (Sa)) [Example 3, (2S)-2-[(5Sa)-5-[3-Chloro-2-methyl-4-[2-(4-methylpiperazin-1-yl)ethoxy]phenyl]-6-(4-fluoro-phenyl)pyrrolo[2,1-f][1,2,4]triazin-4-yl]oxy-3-[2-(cyclopropylmethoxy)phenyl]propanoic acid] | > 12000 |
| Cc1c(-c2c(-c3ccc(F)cc3)cn3ncnc(N[C@H](Cc4ccccc4OCC4CC4)C(=O)O)c23)ccc(OCCN2CCN(C)CC2)c1Cl (single isomer, unassigned) [Example 7] | 77.7 |
| Cc1c(-c2c(-c3ccc(F)cc3)cn3ncnc(O[C@H](Cc4ccccc4OCC4CC4)C(=O)O)c23)ccc(OCCN2CCN(C)CC2)c1Cl (atropisomer, axis not shown; (Ra)) [Example 4, (2R)-2-[(5Ra)-5-[3-Chloro-2-methyl-4-[2-(4-methylpiperazin-1-yl)ethoxy]phenyl]-6-(4-fluoro-phenyl)pyrrolo[2,1-f][1,2,4]triazin-4-yl]oxy-3-[2-(cyclopropylmethoxy)phenyl]propanoic acid] | 11.3 |
| Cc1c(-c2c(-c3ccc(F)cc3)cn3ncnc(O[C@H](Cc4ccccc4OCC4CC4)C(=O)O)c23)ccc(OCCN2CCN(C)CC2)c1Cl (atropisomer, axis not shown; (Sa)) [Example 1, (2R)-2-[(5Sa)-5-[3-Chloro-2-methyl-4-[2-(4-methylpiperazin-1-yl)ethoxy]phenyl]-6-(4-fluoro-phenyl)pyrrolo[2,1-f][1,2,4]triazin-4-yl]oxy-3-[2-(cyclopropylmethoxy)phenyl]propanoic acid] | 205 |
